This assay relates to mice with chronic constriction injury. Description: Chronic constriction injury (CCI) model, paw withdrawal thresholds to von Frey filaments. Type of assay: in vivo, mouse. As to conditions: CCI, systemic treatment. From the text:
In deeply anaesthetized mice using isoflurane delivered in 100% 02 (Univentor 410 Anaesthesia unit; Univentor, Malta), four loose silk (5/0; Catgut GmbH Markneukirchen) ligatures were placed around the sciatic nerve at the level of the right mid-thigh as described previously (Wetzel et al., 2007).
Mice were allowed to habituate to the testing apparatus (acrylic chambers 10×10 cm in size, suspended above a wired mesh grid) one hour prior to behavioral testing. Only once the subject was at rest and not moving, calibrated von-Frey hair monofilaments (Aesthesio® set of 20 monofilaments, Ugo Basil) were applied to the plantar surface of the hind paw in order to deliver target forces from 0.008 grams to 4 grams increasing in an approximately logarithmic scale. A single stimulus indicated by a slight bending of the filament lasted for two seconds unless the mouse withdrew its paw. In order to measure mechanosensitivity the up-and-down method described by Chaplan^13 was adapted as follows: Testing began with a filament delivering a target force of 0.4 g, but filaments were applied three times. A positive response was noted if the subject withdrew the paw to all three filament applications, so that the successively smaller filament was presented next. […] Paw withdrawal thresholds were calculated as median of 23 to 30 determined turning points of the particular force stimuli applied to the subject.
Drug injections of OB-1 or DMSO alone were dissolved in Ringer's solution (in mM: 135 NaCl, 5 KCl, 5 HEPES, 1.8 CaCl2), 1 MgCl2) to make the OB-1 and vehicle solution. Injections were made 3 hours prior to behavioral testing, approximately 20 μl solution, 250 pmol per paw, was injected into the palm with a Hamilton syringe, gauge 33. During the injection procedure, the mouse was anaesthetized with isoflurane (1.5 to 2.5% in 02). The injection procedure lasted around 3 minutes after which the mouse was moved to the home cage for recovery before behavioral testing.
We next interrogated whether local application of OB-1 can ameliorate tactile-evoked pain behavior in neuropathic models. […] We decided to test this idea more directly by testing the effects of local OB-1 on the mechanical sensitivity of Stoml3^−/− mice with CCI. […] Off-target effects are an issue for any biologically active small molecule. We therefore tested the effects of 20 μM OB-1 in a commercially available in vitro pharmacology panel (www.cerep.fr) consisting of 79 receptors and ion channels.

Take `NCC1(CC(=O)O)CCCCC1` [gabapentin, reference compound]: the tactile allodynia entry is reported as “reversal of tactile allodynia”.

Source of the values: patent US11384071B2, “Inhibitors of mechanotransduction to treat pain and modulate touch perception” (Max-Delbrück-Centrum für Molekulare Medizin in der …, priority 2016, dated 2022).
